Measured values as given in patent US20250230151A1, “COMPOUNDS FOR CANCERS DRIVEN BY BRAF MUTATION” (THE BOARD OF TRUSTEES OF THE UNIVERSITY OF ILLINOIS, priority 2021, published 2025).

Test system: V600EBRAF melanoma cell lines
Experiment: Cell viability, panel of V600E BRAF melanoma cell lines
Format: cell-based
Conditions: range over the panel; read-out: IC50 values against a panel of V600EBRAF melanoma cell lines
Description: Cell Culture and reagents. All cell lines were grown in a 37° C., 5% CO2, humidified environment, in media containing 1% penicillin/streptomycin. Cell culture conditions are as follows: MDCK cells transfected with MDR1 (or ABCB1) were obtained from the Netherlands Cancer Institute (Amsterdam, The Netherlands) and maintained in DMEM with 10% fetal bovine serum (FBS, Gemini). Traditional cell lines A375, CHL-1, B16F10, and U118MG were grown in DMEM with 10% FBS, SK-MEL-28, U87 and T98G in EMEM with 10% FBS, AM-38 in EMEM with 20% HI-FBS (Gibco), HT29 in McCoy's 5A with 10% FBS, HCT116 in RPMI with 10% FBS. Compounds were dissolved in DMSO (1% final concentration, Sigma-Aldrich) for cell culture studies.
Cell viability assays. Cells were harvested, seeded in a 96-well plate and allowed to adhere overnight. Compound was added to each well in DMSO (1% final concentration). Cells were incubated for 72 hours before viability was assessed by the Alamar Blue Assay. Raptinal ([…]) was used as a dead control.

For `CCCS(=O)(=O)Nc1cc(Cl)cc(-c2nc(C(C)(C)C)sc2-c2ccnc(N)n2)c1F` [6-261, N-(3-(5-(2-aminopyrimidin-4-yl)-2-(tert-butyl)thiazol-4-yl)-5-chloro-2-fluorophenyl)propane-1-sulfonamide], which IC50 is on record?
Its IC50 is 2 to 10 nM.
